Laboratory results taken from the kinase profiling compilation of Christmann-Franck et al. (2016).

Assays:
Assay in all cases: KINOMEscan competition binding
Conditions in all cases: compound 10.0 µM
[1] = test system: ABL1 (human), P00519 [F317L]
BMPR1A (human) = BMPR1A (human) (UniProt P36894)
BTK (human) = BTK (human) (UniProt Q06187)
CAMK1G (human) = CAMK1G (human) (UniProt Q96NX5)
CAMK4 (human) = CAMK4 (human) (UniProt Q16566)
CDK5 (human) = CDK5 (human) (UniProt Q00535)
CDKL2 (human) = CDKL2 (human) (UniProt Q92772)
CHEK2 (human) = CHEK2 (human) (UniProt O96017)
CSNK1A1L (human) = CSNK1A1L (human) (UniProt Q8N752)
[2] = test system: EGFR (human), P00533 [A750P; 747-749 del]
[3] = test system: EGFR (human), P00533 [L861Q]
EPHA3 (human) = EPHA3 (human) (UniProt P29320)
EPHB1 (human) = EPHB1 (human) (UniProt P54762)
GSK3B (human) = GSK3B (human) (UniProt P49841)
IGF1R (human) = IGF1R (human) (UniProt P08069)
INSRR (human) = INSRR (human) (UniProt P14616)
KDR (human) = KDR (human) (UniProt P35968)
LATS1 (human) = LATS1 (human) (UniProt O95835)
MAP3K3 (human) = MAP3K3 (human) (UniProt Q99759)
MAP4K3 (human) = MAP4K3 (human) (UniProt Q8IVH8)
MAPK10 (human) = MAPK10 (human) (UniProt P53779)
MARK1 (human) = MARK1 (human) (UniProt Q9P0L2)
MST1R (human) = MST1R (human) (UniProt Q04912)
MYLK2 (human) = MYLK2 (human) (UniProt Q9H1R3)
NTRK3 (human) = NTRK3 (human) (UniProt Q16288)
PAK6 (human) = PAK6 (human) (UniProt Q9NQU5)
PIK3CA (human) = PIK3CA (human) (UniProt P42336)
PRKACB (human) = PRKACB (human) (UniProt P22694)
PRKD2 (human) = PRKD2 (human) (UniProt Q9BZL6)
PRKG2 (human) = PRKG2 (human) (UniProt Q13237)
RET (human) = RET (human) (UniProt P07949)
[4] = test system: RET (human), P07949 [M918T]
ROCK2 (human) = ROCK2 (human) (UniProt O75116)
RPS6KA4 KD1 (human) = RPS6KA4 KD1 (human) (UniProt O75676)
STK10 (human) = STK10 (human) (UniProt O94804)
STK3 (human) = STK3 (human) (UniProt Q13188)
STK32C (human) = STK32C (human) (UniProt Q86UX6)
STK36 (human) = STK36 (human) (UniProt Q9NRP7)
STK38L (human) = STK38L (human) (UniProt Q9Y2H1)
TEK (human) = TEK (human) (UniProt Q02763)
TYRO3 (human) = TYRO3 (human) (UniProt Q06418)
YES1 (human) = YES1 (human) (UniProt P07947)
Sequence of YES1 (human) (P07947 whole entry, looked up): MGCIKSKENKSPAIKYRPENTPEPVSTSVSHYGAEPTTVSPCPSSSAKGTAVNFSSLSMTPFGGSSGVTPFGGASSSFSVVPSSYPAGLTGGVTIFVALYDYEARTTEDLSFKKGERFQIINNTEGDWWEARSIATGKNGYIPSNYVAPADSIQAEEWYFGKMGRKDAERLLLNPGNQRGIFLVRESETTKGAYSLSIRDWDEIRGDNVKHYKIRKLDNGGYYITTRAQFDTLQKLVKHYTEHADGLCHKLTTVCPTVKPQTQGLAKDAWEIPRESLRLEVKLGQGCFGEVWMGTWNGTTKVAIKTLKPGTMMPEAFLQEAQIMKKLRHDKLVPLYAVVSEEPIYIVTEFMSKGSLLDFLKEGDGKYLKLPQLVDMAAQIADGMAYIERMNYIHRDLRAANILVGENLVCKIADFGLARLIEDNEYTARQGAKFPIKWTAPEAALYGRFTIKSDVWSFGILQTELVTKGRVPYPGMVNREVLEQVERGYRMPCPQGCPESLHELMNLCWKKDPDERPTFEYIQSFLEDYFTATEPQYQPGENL

Sequence of CAMK1G (human) (Q96NX5 whole entry, looked up): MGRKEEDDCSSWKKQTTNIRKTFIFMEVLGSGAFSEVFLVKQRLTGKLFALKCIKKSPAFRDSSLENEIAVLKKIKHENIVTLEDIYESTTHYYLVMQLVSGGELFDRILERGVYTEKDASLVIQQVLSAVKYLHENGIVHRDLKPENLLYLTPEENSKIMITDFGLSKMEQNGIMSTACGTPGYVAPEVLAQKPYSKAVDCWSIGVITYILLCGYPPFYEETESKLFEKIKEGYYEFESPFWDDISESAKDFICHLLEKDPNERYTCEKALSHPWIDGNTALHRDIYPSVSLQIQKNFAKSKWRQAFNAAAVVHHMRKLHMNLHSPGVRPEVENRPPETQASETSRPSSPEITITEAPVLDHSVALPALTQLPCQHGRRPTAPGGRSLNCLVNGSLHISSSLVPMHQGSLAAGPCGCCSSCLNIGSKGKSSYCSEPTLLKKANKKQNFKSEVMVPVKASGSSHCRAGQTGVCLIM
Sequence of STK38L (human) (Q9Y2H1 whole entry, looked up): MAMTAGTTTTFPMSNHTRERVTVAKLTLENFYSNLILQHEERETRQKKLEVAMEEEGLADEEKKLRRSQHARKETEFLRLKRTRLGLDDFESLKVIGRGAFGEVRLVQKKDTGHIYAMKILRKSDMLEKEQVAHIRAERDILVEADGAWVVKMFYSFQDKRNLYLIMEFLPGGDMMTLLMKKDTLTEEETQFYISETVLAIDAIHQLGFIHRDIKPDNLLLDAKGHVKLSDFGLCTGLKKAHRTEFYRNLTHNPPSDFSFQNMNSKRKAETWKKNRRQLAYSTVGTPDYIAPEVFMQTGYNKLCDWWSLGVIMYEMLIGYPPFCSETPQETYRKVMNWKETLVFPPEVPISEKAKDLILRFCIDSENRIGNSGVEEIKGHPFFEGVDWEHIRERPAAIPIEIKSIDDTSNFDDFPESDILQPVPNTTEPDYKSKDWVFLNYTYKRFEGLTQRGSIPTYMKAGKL
Sequence of ABL1 (human), P00519 [F317L] (P00519 whole entry F317L, looked up): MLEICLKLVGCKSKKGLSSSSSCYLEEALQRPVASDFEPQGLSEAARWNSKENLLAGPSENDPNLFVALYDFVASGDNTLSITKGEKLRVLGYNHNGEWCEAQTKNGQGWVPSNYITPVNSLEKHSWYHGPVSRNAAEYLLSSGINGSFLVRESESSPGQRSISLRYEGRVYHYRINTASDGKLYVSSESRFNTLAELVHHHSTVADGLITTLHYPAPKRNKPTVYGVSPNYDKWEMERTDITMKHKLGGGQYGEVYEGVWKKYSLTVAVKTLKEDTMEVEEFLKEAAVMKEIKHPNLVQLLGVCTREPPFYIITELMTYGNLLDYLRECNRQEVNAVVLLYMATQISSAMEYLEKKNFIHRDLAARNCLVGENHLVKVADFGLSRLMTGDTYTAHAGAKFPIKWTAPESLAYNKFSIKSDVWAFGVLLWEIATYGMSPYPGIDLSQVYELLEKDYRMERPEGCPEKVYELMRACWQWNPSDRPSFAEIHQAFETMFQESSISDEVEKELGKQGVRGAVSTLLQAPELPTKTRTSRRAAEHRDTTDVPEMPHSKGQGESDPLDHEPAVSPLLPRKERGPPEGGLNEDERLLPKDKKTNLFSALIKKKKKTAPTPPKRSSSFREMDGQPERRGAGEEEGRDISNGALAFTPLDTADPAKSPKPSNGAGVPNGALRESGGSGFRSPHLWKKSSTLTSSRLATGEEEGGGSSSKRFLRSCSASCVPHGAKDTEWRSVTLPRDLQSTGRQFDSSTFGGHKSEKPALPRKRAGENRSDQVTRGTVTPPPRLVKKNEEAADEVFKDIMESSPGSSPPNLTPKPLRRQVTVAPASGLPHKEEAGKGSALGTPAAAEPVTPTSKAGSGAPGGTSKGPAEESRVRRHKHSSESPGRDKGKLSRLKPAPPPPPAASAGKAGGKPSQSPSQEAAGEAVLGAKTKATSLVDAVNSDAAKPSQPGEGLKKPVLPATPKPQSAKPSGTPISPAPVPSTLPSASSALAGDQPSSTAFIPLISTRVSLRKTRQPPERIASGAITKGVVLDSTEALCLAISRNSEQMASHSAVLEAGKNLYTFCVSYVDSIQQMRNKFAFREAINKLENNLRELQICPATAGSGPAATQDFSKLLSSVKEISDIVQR
Sequence of STK3 (human) (Q13188 whole entry, looked up): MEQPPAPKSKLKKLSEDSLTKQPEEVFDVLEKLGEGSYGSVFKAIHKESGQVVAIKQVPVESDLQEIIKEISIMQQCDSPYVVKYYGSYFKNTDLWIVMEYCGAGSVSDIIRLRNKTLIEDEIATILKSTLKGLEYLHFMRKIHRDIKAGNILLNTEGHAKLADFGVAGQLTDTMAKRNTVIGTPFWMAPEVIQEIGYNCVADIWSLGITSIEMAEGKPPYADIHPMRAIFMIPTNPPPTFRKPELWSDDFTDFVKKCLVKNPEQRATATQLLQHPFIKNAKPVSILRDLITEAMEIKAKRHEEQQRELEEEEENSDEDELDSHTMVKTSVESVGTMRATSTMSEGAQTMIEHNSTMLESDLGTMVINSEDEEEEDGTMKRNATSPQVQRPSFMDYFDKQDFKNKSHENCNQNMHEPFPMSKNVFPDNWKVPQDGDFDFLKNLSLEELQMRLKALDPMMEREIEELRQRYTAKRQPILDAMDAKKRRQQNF
Sequence of IGF1R (human) (P08069 whole entry, looked up): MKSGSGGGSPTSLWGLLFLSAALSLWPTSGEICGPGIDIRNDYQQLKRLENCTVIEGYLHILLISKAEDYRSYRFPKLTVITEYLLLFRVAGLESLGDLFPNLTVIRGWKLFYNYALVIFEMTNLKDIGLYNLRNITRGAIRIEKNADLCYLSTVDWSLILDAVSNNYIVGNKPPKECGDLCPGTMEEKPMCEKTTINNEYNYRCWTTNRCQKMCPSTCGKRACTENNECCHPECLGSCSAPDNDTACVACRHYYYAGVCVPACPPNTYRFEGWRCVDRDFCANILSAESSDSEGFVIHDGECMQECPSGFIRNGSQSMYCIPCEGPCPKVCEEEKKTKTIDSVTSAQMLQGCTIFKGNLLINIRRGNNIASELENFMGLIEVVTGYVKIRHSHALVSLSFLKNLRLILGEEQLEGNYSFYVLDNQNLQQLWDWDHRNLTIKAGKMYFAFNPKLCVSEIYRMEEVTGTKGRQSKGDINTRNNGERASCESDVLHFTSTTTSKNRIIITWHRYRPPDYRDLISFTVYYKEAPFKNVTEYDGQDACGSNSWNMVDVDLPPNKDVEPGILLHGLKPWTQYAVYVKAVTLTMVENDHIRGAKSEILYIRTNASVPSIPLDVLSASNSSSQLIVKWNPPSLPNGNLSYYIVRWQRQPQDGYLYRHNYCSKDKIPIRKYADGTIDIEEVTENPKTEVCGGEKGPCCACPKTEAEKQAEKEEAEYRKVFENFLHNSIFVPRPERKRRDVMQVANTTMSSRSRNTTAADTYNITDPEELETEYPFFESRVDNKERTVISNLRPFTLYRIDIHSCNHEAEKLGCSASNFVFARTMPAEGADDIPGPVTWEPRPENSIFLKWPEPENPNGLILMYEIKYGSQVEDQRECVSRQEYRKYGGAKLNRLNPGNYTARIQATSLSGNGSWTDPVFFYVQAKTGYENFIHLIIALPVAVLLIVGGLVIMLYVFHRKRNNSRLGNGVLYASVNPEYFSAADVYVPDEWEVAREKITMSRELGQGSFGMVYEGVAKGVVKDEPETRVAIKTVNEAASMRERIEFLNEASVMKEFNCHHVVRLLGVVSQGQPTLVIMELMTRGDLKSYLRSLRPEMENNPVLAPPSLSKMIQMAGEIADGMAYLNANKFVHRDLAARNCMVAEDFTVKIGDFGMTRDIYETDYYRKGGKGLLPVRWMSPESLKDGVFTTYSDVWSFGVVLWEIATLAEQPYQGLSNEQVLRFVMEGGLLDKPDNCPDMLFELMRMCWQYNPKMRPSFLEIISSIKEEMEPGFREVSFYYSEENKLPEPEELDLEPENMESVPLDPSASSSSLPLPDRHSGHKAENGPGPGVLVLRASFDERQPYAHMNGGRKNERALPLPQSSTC
Sequence of CDKL2 (human) (Q92772 whole entry, looked up): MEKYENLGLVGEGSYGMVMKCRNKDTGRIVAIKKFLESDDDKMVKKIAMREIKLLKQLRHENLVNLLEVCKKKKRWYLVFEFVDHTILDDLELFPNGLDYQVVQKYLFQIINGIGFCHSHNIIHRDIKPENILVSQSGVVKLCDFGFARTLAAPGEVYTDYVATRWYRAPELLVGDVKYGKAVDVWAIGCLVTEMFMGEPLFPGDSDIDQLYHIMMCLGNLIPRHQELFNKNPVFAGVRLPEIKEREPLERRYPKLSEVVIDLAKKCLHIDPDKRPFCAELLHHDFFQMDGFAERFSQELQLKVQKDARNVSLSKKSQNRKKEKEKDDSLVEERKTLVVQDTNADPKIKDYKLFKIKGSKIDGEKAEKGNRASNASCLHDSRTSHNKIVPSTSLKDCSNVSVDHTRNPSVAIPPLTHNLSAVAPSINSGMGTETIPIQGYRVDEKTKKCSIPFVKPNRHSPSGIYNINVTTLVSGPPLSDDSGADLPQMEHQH

With `CN1C(=O)c2ccccc2N(C)c2nc(Nc3ccc(N4CCC(O)CC4)cc3)ncc21` the kinase still bound, per cent of control [1] was 20%, the kinase still bound, per cent of control (BMPR1A (human)) was 61% and the kinase still bound, per cent of control (BTK (human)) was 100%. It also gave a kinase still bound, per cent of control (CAMK1G (human)) of 91%, a kinase still bound, per cent of control (CAMK4 (human)) of 100% and a kinase still bound, per cent of control (CDK5 (human)) of 100%. For the same compound, the kinase still bound, per cent of control (CDKL2 (human)) was 100%, the kinase still bound, per cent of control (CHEK2 (human)) was 81% and the kinase still bound, per cent of control (CSNK1A1L (human)) was 98%. For the same compound, the kinase still bound, per cent of control [2] was 98%, the kinase still bound, per cent of control [3] was 100% and the kinase still bound, per cent of control (EPHA3 (human)) was 83%. For the same compound, the kinase still bound, per cent of control (EPHB1 (human)) was 100%, the kinase still bound, per cent of control (GSK3B (human)) was 88% and the kinase still bound, per cent of control (IGF1R (human)) was 100%. The kinase still bound, per cent of control (INSRR (human)) was 96%, the kinase still bound, per cent of control (KDR (human)) was 97% and the kinase still bound, per cent of control (LATS1 (human)) was 92%. It also gave a kinase still bound, per cent of control (MAP3K3 (human)) of 0.35%, a kinase still bound, per cent of control (MAP4K3 (human)) of 45% and a kinase still bound, per cent of control (MAPK10 (human)) of 100%. For the same compound, the kinase still bound, per cent of control (MARK1 (human)) was 59%, the kinase still bound, per cent of control (MST1R (human)) was 94% and the kinase still bound, per cent of control (MYLK2 (human)) was 80%. It also gave a kinase still bound, per cent of control (NTRK3 (human)) of 82%, a kinase still bound, per cent of control (PAK6 (human)) of 100% and a kinase still bound, per cent of control (PIK3CA (human)) of 98%. The kinase still bound, per cent of control (PRKACB (human)) was 100%, the kinase still bound, per cent of control (PRKD2 (human)) was 99% and the kinase still bound, per cent of control (PRKG2 (human)) was 95%. The kinase still bound, per cent of control (RET (human)) was 15%, the kinase still bound, per cent of control [4] was 4.2% and the kinase still bound, per cent of control (ROCK2 (human)) was 86%. It also gave a kinase still bound, per cent of control (RPS6KA4 KD1 (human)) of 100%, a kinase still bound, per cent of control (STK10 (human)) of 100% and a kinase still bound, per cent of control (STK3 (human)) of 27%. For the same compound, the kinase still bound, per cent of control (STK32C (human)) was 100%, the kinase still bound, per cent of control (STK36 (human)) was 100% and the kinase still bound, per cent of control (STK38L (human)) was 82%. The kinase still bound, per cent of control (TEK (human)) was 72%, the kinase still bound, per cent of control (TYRO3 (human)) was 100% and the kinase still bound, per cent of control (YES1 (human)) was 38%.

`CN1C(=O)c2ccccc2N(C)c2nc(NS(=O)(=O)c3ccc(N)cc3)ncc21` showed a kinase still bound, per cent of control [1] of 100%, a kinase still bound, per cent of control (BMPR1A (human)) of 90% and a kinase still bound, per cent of control (BTK (human)) of 100%. The kinase still bound, per cent of control (CAMK1G (human)) was 100%, the kinase still bound, per cent of control (CAMK4 (human)) was 100% and the kinase still bound, per cent of control (CDK5 (human)) was 100%. The kinase still bound, per cent of control (CDKL2 (human)) was 100%, the kinase still bound, per cent of control (CHEK2 (human)) was 100% and the kinase still bound, per cent of control (CSNK1A1L (human)) was 100%. It also gave a kinase still bound, per cent of control [2] of 100%, a kinase still bound, per cent of control [3] of 84% and a kinase still bound, per cent of control (EPHA3 (human)) of 97%. It also gave a kinase still bound, per cent of control (EPHB1 (human)) of 100%, a kinase still bound, per cent of control (GSK3B (human)) of 94% and a kinase still bound, per cent of control (IGF1R (human)) of 100%. It also gave a kinase still bound, per cent of control (INSRR (human)) of 100%, a kinase still bound, per cent of control (KDR (human)) of 88% and a kinase still bound, per cent of control (LATS1 (human)) of 74%. For the same compound, the kinase still bound, per cent of control (MAP3K3 (human)) was 100%, the kinase still bound, per cent of control (MAP4K3 (human)) was 100% and the kinase still bound, per cent of control (MAPK10 (human)) was 100%. The kinase still bound, per cent of control (MARK1 (human)) was 100%, the kinase still bound, per cent of control (MST1R (human)) was 100% and the kinase still bound, per cent of control (MYLK2 (human)) was 88%. It also gave a kinase still bound, per cent of control (NTRK3 (human)) of 72%, a kinase still bound, per cent of control (PAK6 (human)) of 100% and a kinase still bound, per cent of control (PIK3CA (human)) of 100%. It also gave a kinase still bound, per cent of control (PRKACB (human)) of 100%, a kinase still bound, per cent of control (PRKD2 (human)) of 100% and a kinase still bound, per cent of control (PRKG2 (human)) of 100%. It also gave a kinase still bound, per cent of control (RET (human)) of 100%, a kinase still bound, per cent of control [4] of 100% and a kinase still bound, per cent of control (ROCK2 (human)) of 100%. The kinase still bound, per cent of control (RPS6KA4 KD1 (human)) was 100%, the kinase still bound, per cent of control (STK10 (human)) was 100% and the kinase still bound, per cent of control (STK3 (human)) was 87%. For the same compound, the kinase still bound, per cent of control (STK32C (human)) was 100%, the kinase still bound, per cent of control (STK36 (human)) was 100% and the kinase still bound, per cent of control (STK38L (human)) was 100%. It also gave a kinase still bound, per cent of control (TEK (human)) of 97%, a kinase still bound, per cent of control (TYRO3 (human)) of 100% and a kinase still bound, per cent of control (YES1 (human)) of 100%.

`COc1cc(N2CCN(C)CC2)ccc1Nc1ncc2c(n1)Nc1ccccc1NC2=O` gave a kinase still bound, per cent of control [1] of 29%, a kinase still bound, per cent of control (BMPR1A (human)) of 80% and a kinase still bound, per cent of control (BTK (human)) of 23%. The kinase still bound, per cent of control (CAMK1G (human)) was 100%, the kinase still bound, per cent of control (CAMK4 (human)) was 100% and the kinase still bound, per cent of control (CDK5 (human)) was 87%. The kinase still bound, per cent of control (CDKL2 (human)) was 9.5%, the kinase still bound, per cent of control (CHEK2 (human)) was 84% and the kinase still bound, per cent of control (CSNK1A1L (human)) was 100%. The kinase still bound, per cent of control [2] was 33%, the kinase still bound, per cent of control [3] was 61% and the kinase still bound, per cent of control (EPHA3 (human)) was 61%. For the same compound, the kinase still bound, per cent of control (EPHB1 (human)) was 96%, the kinase still bound, per cent of control (GSK3B (human)) was 53% and the kinase still bound, per cent of control (IGF1R (human)) was 100%. For the same compound, the kinase still bound, per cent of control (INSRR (human)) was 41%, the kinase still bound, per cent of control (KDR (human)) was 74% and the kinase still bound, per cent of control (LATS1 (human)) was 90%. It also gave a kinase still bound, per cent of control (MAP3K3 (human)) of 86%, a kinase still bound, per cent of control (MAP4K3 (human)) of 100% and a kinase still bound, per cent of control (MAPK10 (human)) of 58%. It also gave a kinase still bound, per cent of control (MARK1 (human)) of 100%, a kinase still bound, per cent of control (MST1R (human)) of 100% and a kinase still bound, per cent of control (MYLK2 (human)) of 69%. It also gave a kinase still bound, per cent of control (NTRK3 (human)) of 2.1%, a kinase still bound, per cent of control (PAK6 (human)) of 100% and a kinase still bound, per cent of control (PIK3CA (human)) of 100%. It also gave a kinase still bound, per cent of control (PRKACB (human)) of 100%, a kinase still bound, per cent of control (PRKD2 (human)) of 100% and a kinase still bound, per cent of control (PRKG2 (human)) of 100%. The kinase still bound, per cent of control (RET (human)) was 95%, the kinase still bound, per cent of control [4] was 72% and the kinase still bound, per cent of control (ROCK2 (human)) was 48%. It also gave a kinase still bound, per cent of control (RPS6KA4 KD1 (human)) of 100%, a kinase still bound, per cent of control (STK10 (human)) of 100% and a kinase still bound, per cent of control (STK3 (human)) of 100%. The kinase still bound, per cent of control (STK32C (human)) was 100%, the kinase still bound, per cent of control (STK36 (human)) was 64% and the kinase still bound, per cent of control (STK38L (human)) was 100%. For the same compound, the kinase still bound, per cent of control (TEK (human)) was 100%, the kinase still bound, per cent of control (TYRO3 (human)) was 100% and the kinase still bound, per cent of control (YES1 (human)) was 68%.
